# Measurements taken from patent US11058654B2, “Compositions and methods for the treatment of hemoglobinopathies and thalassemias” (AXCELLA HEALTH INC., priority 2018, dated 2021).
# Assays:
# Assay type in all cases: cell-based, human
# [1] = tested on: whole blood of healthy control donors; test: Reactive oxygen species (DCF fluorescence, H2O2) in whole blood of healthy controls
# Method: (§1) Whole blood samples were appropriately diluted in Ca^2+- and Mg^2+-free Dulbecco's phosphate buffered saline (DPBS, Life Technologies) and the concentration of erythrocytes (RBC/ml) was measured on a Cellometer K2 Fluorescent Viability Cell Counter according to the manufacturer's RBC/AOPI protocol (Nexcelom Biosciences).
# (§2) Cells were then diluted to 1*10^6 RBC/ml into either prewarmed 37° C. […] 2′-7′-dichlorofluorescin diacetate (DCF, Millipore Sigma), 20 mM in dimethyl sulfoxide (DMSO, Fisher) were added to a working concentration of 100 μM. Cells were incubated with dye for 15 minutes at 37° C., 5% CO2 in a tissue culture incubator, washed once, and resuspended in the 0.9 volumes of the same prewarmed 37° C. buffer with 5 minute spins at 500× g, accel/decal=5 in a swing arm centrifuge (Beckman Coulter). […] Where possible due to solubility constrains, pH-7.4-adjusted stock solutions of amino acids were used. Wells were mixed by pipetting and plates incubated at 37° C., 5% CO2 in a tissue culture incubator for 30 minutes. Optionally, 40 mM H2O2(Millipore Sigma) freshly prepared in the same buffer was added to bring the concentration to 2 mM, wells mixed by pipetting, and plates were incubated an additional 30, 60, 120, or 240 minutes before fluorescence measurement of ROS signal on a Synergy H4 (BioTek) microplate reader with excitation=488 nm and emission=530 nm, and gain either set to autogain, 75, or 100.
# [2] = tested on: sickle cell disease patient blood; test: Reactive oxygen species (DCF fluorescence, H2O2) in sickle cell disease patient blood
# Method: as §1, §2
# ICAM-1 = ICAM-1 cell integrated intensity in HLMVEC treated with TNFa; settings: 0.5 ng/mL TNFα; amino acids at 20×; 24 hours; in words
# Text: (§3) A VEC model was employed to assess the ability of amino acids to influence aspects of vascular dysfunction in SCD. TNFa treatment of healthy donor HLMVEC mimics the SCD disease state and induces expression of adhesion markers ICAM-1 and VCAM-1, and secretion of proinflammatory cytokine IL-6. It is established that levels of ICAM-1, VCAM-1, and IL-6 can contribute to SCD pathology and correlate with the incidence and severity of complications in SCD patients. The VEC model sought to test the ability of amino acids to reduce the TNFa-induced disease phenotype by lowering expression of adhesion markers (ICAM-1 and VCAM-1) and inflammatory cytokines (IL-6) while promoting VEC health and viability.
# Primary Human Lung Microvascular Endothelial Cells (HLMVEC; Lonza) were seeded at 6,000 cells per well in Endothelial Cell Growth Basal Medium-2 (Lonza) supplemented with Fetal Bovine Serum (FBS; Lonza), human EGF (Lonza), human VEGF (Lonza), R3-Insulin-like Growth Factor-1 (Lonza), ascorbic acid (Lonza), hydrocortisone (Lonza), human FGF-beta (Lonza), and gentamicin/amphotericin-b (Lonza) in a 96-well plate (Thermo Fisher). […]
# (§4) Antibody binding was detected by fluorescence microscopy using a high content imager (Molecular Devices). Images were analyzed using MetaXpress 6 software to determine the integrated intensity per cell for each wavelength corresponding to ICAM-1 or VCAM-1.
# VCAM-1 = VCAM-1 cell integrated intensity in HLMVEC treated with TNFa; settings: 0.5 ng/mL TNFα; amino acids at 20×; 24 hours; in words
# Text: as §3
# Primary Human Lung Microvascular Endothelial Cells (HLMVEC; Lonza) were seeded at 6,000 cells per well in Endothelial Cell Growth Basal Medium-2 (Lonza) supplemented with Fetal Bovine Serum (FBS; Lonza), human EGF (Lonza), human VEGF (Lonza), R3-Insulin-like Growth Factor-1 (Lonza), ascorbic acid (Lonza), hydrocortisone (Lonza), human FGF-beta (Lonza), and gentamicin/amphotericin-b (Lonza) in a 96-well plate (Thermo Fisher). The cells were incubated for 45 minutes at room temperature, then incubated overnight at 37° C./5% CO2.
# Following overnight incubation, cell were washed once with 150 μL of Dulbecco's phosphate buffered saline (DPBS; Gibco), and then treated with Endothelial Basal Medium MCB-131 (amino acid, glucose, sodium pyruvate, and phenol red free; US Biologicals) containing a defined custom amino acid concentration based on physiological concentrations in blood of patients with SCD (thus recapitulating observed metabolic imbalances such as the depletion of certain essential amino acids including arginine and aspartate and enrichment of certain non-essential amino acids including glutamate and asparagine), dialyzed FBS (Hyclone), human EGF (Lonza), human VEGF (Lonza), R3-Insulin-like Growth Factor-1 (Lonza), ascorbic acid (Lonza), hydrocortisone (Lonza), human FGF-beta (Lonza), and gentamicin/amphotericin-b (Lonza), glucose, 10 mM HEPES, sodium pyruvate, and sodium bicarbonate supplemented with one of the following: • a. PBS (vehicle control), • b. 0.5 ng/mL Tumor Necrosis Factor alpha (TNFα) and PBS, or; • c. 0.5 ng/mL TNFα and amino acid treatments at 20× mean physiological concentrations in plasma based on values published in the Human Metabolome Database (HMDB) in PBS.
# After 24 hours of treatment, cells were washed once with 150 μL of DPBS (Gibco), then fixed with 4% paraformaldehyde. […]
# as §4
compound,measurement,setting,value
N[C@@H](CS)C(=O)O [cysteine],ROS measured in whole blood,"[1]; healthy control donors, treated with H2O2, dose-responsive",reduced ROS
same,ROS measured in whole blood,[2]; treated with H2O2 and untreated in DPBS,reduced ROS
N[C@@H](Cc1c[nH]c2ccccc12)C(=O)O [tryptophan],ROS signal,"[1]; healthy donor blood, 10×",increased ROS signal
same,ROS signal,[2]; 10×,increased ROS signal
"NCC(=O)O [Gly, glycine]",TNF-α induced ICAM-1 expression levels in HLMVEC,ICAM-1,reduced levels of ICAM-1 expression to a lesser extent
same,VCAM-1 expression in HLMVEC,VCAM-1,greatly reduced
